{"source": "patent US20210330644A1", "about": "“COMBINATION THERAPY FOR TREATING METASTATIC PROSTATE CANCER” (Progenics Pharmaceuticals, Inc, priority 2018, published 2021)", "origin": "cited, not measured here", "system": "mCRPC"}
{"smiles": "CNC(=O)c1ccc(N2C(=S)N(c3ccc(C#N)c(C(F)(F)F)c3)C(=O)C2(C)C)cc1F", "note": "[enzalutamide]", "values": [{"measurement": "proportion of patients with >50% decline in PSA from baseline", "setting": "after progression under abiraterone therapy of any duration", "result": "30-51%"}, {"measurement": "benefit in abiraterone-resistant patients", "setting": "majority of data", "result": "limited benefit"}]}
